Laboratory results: BindingDB's records for doi:10.1021/jm00018a001 (Smithkline Beecham Pharmaceuticals, 1995)

Tests used:
[1] = target: Alpha-1B adrenergic receptor (Mesocricetus auratus) (UniProt P18841); test: The compound was tested for binding affinity against Alpha-1B adrenergic receptor, from hamster clones.
[2] = target: Alpha-1B adrenergic receptor (Mesocricetus auratus) (UniProt P18841); test: Binding affinity against Alpha-1B adrenergic receptor from hamster clones.

Chain of Alpha-1B adrenergic receptor (Mesocricetus auratus) (P18841 whole entry, looked up): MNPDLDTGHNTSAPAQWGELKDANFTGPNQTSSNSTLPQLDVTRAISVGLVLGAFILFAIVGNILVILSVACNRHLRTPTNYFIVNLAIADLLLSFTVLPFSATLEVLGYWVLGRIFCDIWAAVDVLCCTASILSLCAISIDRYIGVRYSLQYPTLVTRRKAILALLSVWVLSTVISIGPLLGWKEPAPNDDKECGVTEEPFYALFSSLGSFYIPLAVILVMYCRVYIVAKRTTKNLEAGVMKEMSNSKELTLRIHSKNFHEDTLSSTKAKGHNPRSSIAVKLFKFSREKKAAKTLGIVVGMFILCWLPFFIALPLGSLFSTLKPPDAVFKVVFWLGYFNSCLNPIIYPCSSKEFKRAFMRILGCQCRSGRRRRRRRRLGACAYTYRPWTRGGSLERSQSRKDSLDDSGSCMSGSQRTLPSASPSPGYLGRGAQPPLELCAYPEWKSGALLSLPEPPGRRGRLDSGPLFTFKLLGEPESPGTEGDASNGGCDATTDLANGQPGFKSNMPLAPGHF

| Compound | Ki [1] [nM] | Ki [2] [nM] |
| --- | --- | --- |
| O=C(NC1CCN(CCc2c[nH]c3ccccc23)CC1)c1ccccc1 [N-{1-[2-(1H-Indol-3-yl)-ethyl]-piperidin-4-yl}-benzamide(indoramin)] | 25 |  |
| COc1cc2c(cc1OC)CN(c1cc(N)c3cc(OC)c(OC)cc3n1)CC2 |  | 0.11 |
| COc1cc2nc(N(C)CCCNC(=O)C3CCCO3)nc(N)c2cc1OC (stereo not drawn) [N-{3-[(4-amino-6,7-dimethoxyquinazolin-2-yl)(methyl)amino]propyl}tetrahydrofuran-2-carboxamide] |  | 12 |
